The text below walks through data of patent US8748480B2, “Methods for treating opioid tolerance” (priority 2005, dated 2014).

Molecules are shown by their SMILES.

Test [1] concerns the target T1, Gβ1γ2 Arg314Ala (Rattus norvegicus, UniProt P54311, R314A).
T1 construct: made in house; host or cells: Sf9 insect cells (baculovirus)
The experiment in a line: Phage ELISA, b-βγ mutant Arg314Ala. Format: binding. The settings on record: Gβ1γ2 Arg314Ala; phage displaying SIGK peptide. An excerpt:
(§1) Wild-type Gβ1 and Gβ1 mutants were made in the baculovirus vector PDW464 which encodes a biotinylation site at a lysine upstream of the amino terminus of Gβ1 (Goubaeva, et al. (2003) supra). Mutants were generated by overlap extension PCR using standard protocols. The wild-type and mutant Gβ1 constructs consisted of a 20 amino acid biotin acceptor peptide (BAP) sequence fused in-frame with the amino-terminus of rat Gβ1 subunit. When coexpressed with biotin holoenzyme synthetase (BirA) in Sf9 cells, the Gβ1 subunit becomes covalently biotinylated in vivo at the Specific lysine acceptor residue in the BAP. Using this approach, 1-2 mg protein of purified protein can be obtained per liter of Sf9 insect cells. As 45 ng of protein is used in the phage ELISA assay, a single purification is sufficient for 10,000 to 30,000 binding assays.
(§2) Phage ELISA assays used to assess peptide binding to wild-type and mutant b-βγ were performed according to standard methods (Smrcka and Scott (2002) Methods Enzymol. 344:557-76). Briefly, 1 μg streptavidin was immobilized in the well of a […] overnight at 4° C. The wells were blocked with 100 μL of 2% bovine serum albumin (BSA) in Tris-buffered saline (TBS) for 1 hour at 4° C. followed by three washes of 1×TBS/0.5% TWEEN®. Forty μL of 25 nM bGβ1γ2 in TBS/0.5% TWEEN® was added to each well and incubated at 4° C. for 1.5 hour. The wells were washed, followed by the addition of 1×10^6 to 1×10^10 phage particles and incubated at 4° C. for 3 hours. The wells were then washed six times with TBS/0.5% TWEEN® followed by addition of 40 μL of 1:5000 dilution of anti-M13 antibody (Pharmacia, Uppsala, Sweden) and incubated at room temperature for 1 hour. The wells were washed, followed by the addition of 40 μL of (2,2′-Azino-bis(3-ethylbenzthiazoline)-6-sulfonic acid (ABTS) and the colorimetric reaction was monitored at 405 nm. Non-specific binding was subtracted for each reading.
(§3) Both assays were then carried out with Gβ1γ2 heterodimers containing mutations in the Gβ1 subunit.
(§4) The nine peptides were selected to represent the different consensus groups of peptides previously identified (See Scott et al. (2001) supra; Table 9) and to compare binding characteristics within and between consensus groups. […] As disclosed herein, the binding signal obtained in the ELISA assay was correlated to a loss in affinity by comparing the results to behavior of the peptide in a solution based assay. […] For the purposes of present disclosure, any substitution that decreased the binding to less than 20% of the wild-type binding was considered to be a critical binding contact for that peptide.

Test [2] has as its target T2, Gβ1γ2 Asp246Ser (Rattus norvegicus, UniProt P54311, D246S).
T2 construct: made in house; host or cells: Sf9 insect cells (baculovirus)
The test can be described thus: Phage ELISA, b-βγ mutant Asp246Ser. The settings on record: Gβ1γ2 Asp246Ser; phage displaying SIGK peptide. Format: binding.
Description: as §1, §2, §3, §4

In test [3] the target is T3, Gβ1γ2 Tyr145Ala (Rattus norvegicus, UniProt P54311, Y145A).
T3 construct: made in house; host or cells: Sf9 insect cells (baculovirus)
The test can be described thus: Phage ELISA, b-βγ mutant Tyr145Ala. It is filed as binding. The settings on record: Gβ1γ2 Tyr145Ala; phage displaying SIGK peptide.
Description: as §1, §2, §3, §4

The target in test [4] is T4, Gβ1γ2 Trp332Ala (Rattus norvegicus, UniProt P54311, W332A).
T4 construct: made in house; host or cells: Sf9 insect cells (baculovirus)
The test can be described thus: Phage ELISA, b-βγ mutant Trp332Ala. Particulars: Gβ1γ2 Trp332Ala; phage displaying SIGK peptide. It is filed as binding.
Description: as §1, §2, §3, §4

Test [5] addresses T5, wild-type b-Gβ1γ2 (Fαi1 binding) (Rattus norvegicus, UniProt P54311).
T5 construct: made in house; host or cells: Sf9 insect cells (baculovirus) for b-βγ
The experiment in a line: Flow cytometry competition for FITC-Gαi1 binding to immobilized wild-type b-βγ. Particulars: Log [SIGK] M −7.
Description: as §1, with “BAP.” for “BAP. Using this approach, 1-2 mg protein of purified protein can be obtained per liter of Sf9 insect cells. As 45 ng of protein is used in the phage ELISA assay, a single purification is sufficient for 10,000 to 30,000 binding assays.”
(§5) Blocking of Gαi•Gβ1γ2 binding was assessed by simultaneously adding 200 pM FITC-Gαi with or without SICK to 50 pM immobilized b-βγ and measuring the amount of FITC-Gαi bound to the beads by flow cytometry according to standard methods (Ghosh, et al. (2003) supra; Sarvazyan, et al. (1998) J. Biol. Chem. 273:7934-40).
(§6) Fluorescein-labeled Gαi1 (Fαi1) was prepared in accordance with standard methods (Sarvazyan, et al. (1998) supra). Assays were used to determine peptide effects on Gα-Gβγ interactions included competition and dissociation assays (Ghosh, et al. (2003) supra). […] The bead-associated fluorescence was then recorded in a BD Biosciences FACSCALIBUR™ flow cytometer. Data was corrected for background fluorescence and fit with a sigmoid dose response curve using Graph Pad Prism 4. […]

The target in test [6] is T6, Gβ1γ2 Lys57Ala (Rattus norvegicus, UniProt P54311, K57A).
T6 construct: made in house; host or cells: Sf9 insect cells (baculovirus)
The test can be described thus: Phage ELISA, b-βγ mutant Lys57Ala. Format: binding. Particulars: Gβ1γ2 Lys57Ala; phage displaying SIGK peptide.
Description: as §1, §2, §3, §4

Test [7] addresses T7, Gβ1γ2 Met101Ala (Rattus norvegicus, UniProt P54311, M101A).
T7 construct: made in house; host or cells: Sf9 insect cells (baculovirus)
The experiment in a line: Phage ELISA, b-βγ mutant Met101Ala. Particulars: Gβ1γ2 Met101Ala; phage displaying SIGK peptide. Format: binding.
Description: as §1, §2, §3, §4

Test [8] deals with T8, b-βγ Trp332Ala (Fαi1 binding) (Rattus norvegicus, UniProt P54311, W332A).
T8 construct: made in house; host or cells: Sf9 insect cells (baculovirus)
The experiment in a line: Flow cytometry competition for FITC-Gαi1 binding, b-βγ Trp332Ala. Particulars: Log [SIGK] M −7.
Description: as §1, with “BAP.” for “BAP. Using this approach, 1-2 mg protein of purified protein can be obtained per liter of Sf9 insect cells. As 45 ng of protein is used in the phage ELISA assay, a single purification is sufficient for 10,000 to 30,000 binding assays.”
as §5, §6

The target of test [9] is T9, Gβ1γ2 Met188Ala (Rattus norvegicus, UniProt P54311, M188A).
T9 construct: made in house; host or cells: Sf9 insect cells (baculovirus)
The test can be described thus: Phage ELISA, b-βγ mutant Met188Ala. The settings on record: Gβ1γ2 Met188Ala; phage displaying SIGK peptide. Format: binding.
Description: as §1, §2, §3, §4

Test [10] deals with T10, b-βγ Arg314Ala (Fαi1 binding) (Rattus norvegicus, UniProt P54311, R314A).
T10 construct: made in house; host or cells: Sf9 insect cells (baculovirus)
The test can be described thus: Flow cytometry competition for FITC-Gαi1 binding, b-βγ Arg314Ala. Particulars: Log [SIGK] M −7.
Description: as §1, with “BAP.” for “BAP. Using this approach, 1-2 mg protein of purified protein can be obtained per liter of Sf9 insect cells. As 45 ng of protein is used in the phage ELISA assay, a single purification is sufficient for 10,000 to 30,000 binding assays.”
as §5, §6

Test [11] deals with T11, Gβ1γ2 His311Ala (Rattus norvegicus, UniProt P54311, H311A).
T11 construct: made in house; host or cells: Sf9 insect cells (baculovirus)
The experiment in a line: Phage ELISA, b-βγ mutant His311Ala. It is filed as binding. Particulars: Gβ1γ2 His311Ala; phage displaying SIGK peptide.
Description: as §1, §2, §3, §4

In test [12] the target is T12, Gβ1γ2 His62Ala (Rattus norvegicus, UniProt P54311, H62A).
T12 construct: made in house; host or cells: Sf9 insect cells (baculovirus)
The test can be described thus: Phage ELISA, b-βγ mutant His62Ala. It is filed as binding. The settings on record: phage displaying SIGK peptide.
Description: as §1
(§7) Phage ELISA assays used to assess peptide binding to wild-type and mutant b-βγ were performed according to standard methods (Smrcka and Scott (2002) Methods Enzymol. 344:557-76). Briefly, 1 μg streptavidin was immobilized in the well of a 96-six well plate overnight at 4° C. […] The wells were washed, followed by the addition of 40 μL of (2,2′-Azino-bis(3-ethylbenzthiazoline)-6-sulfonic acid (ABTS) and the colorimetric reaction was monitored at 405 nm. Non-specific binding was subtracted for each reading. […]

Test [13] has as its target T13, Gβ1γ2 Trp99Ala (Rattus norvegicus, UniProt P54311, W99A).
T13 construct: made in house; host or cells: Sf9 insect cells (baculovirus)
The experiment in a line: Phage ELISA, b-βγ mutant Trp99Ala. Format: binding.
Description: as §1, §2, §3, §4

Test [14] concerns the target T14, Gβ1γ2 Leu117Ala (Rattus norvegicus, UniProt P54311, L117A).
T14 construct: made in house; host or cells: Sf9 insect cells (baculovirus)
The test can be described thus: Phage ELISA, b-βγ mutant Leu117Ala. It is filed as binding. Particulars: Gβ1γ2 Leu117Ala; phage displaying SIGK peptide.
Description: as §1, §2, §3, §4

In test [15] the target is T15, Gβ1γ2 Phe292Ala (Rattus norvegicus, UniProt P54311, F292A).
T15 construct: made in house; host or cells: Sf9 insect cells (baculovirus)
The experiment in a line: Phage ELISA, b-βγ mutant Phe292Ala. It is filed as binding. Particulars: phage displaying SIGK peptide.
Description: as §1, §7

Regarding `CC[C@H](C)[C@H](NC(=O)[C@H](CCCCN)NC(=O)[C@H](Cc1ccccc1)NC(=O)[C@H](C)NC(=O)[C@H](CCCCN)NC(=O)CNC(=O)[C@@H](NC(=O)[C@@H](N)CO)[C@@H](C)CC)C(=O)N[C@@H](CC(C)C)C(=O)NCC(=O)N[C@@H](Cc1ccc(O)cc1)C(=O)N1CCC[C@H]1C(=O)N[C@@H](CC(=O)O)C(=O)N[C@@H](Cc1ccc(O)cc1)C(=O)N[C@@H](CC(=O)O)C(=O)O` [SIGK], the “% of Wild-Type Signal (mean ± SD)” value worked out at 50.2 ± 5.0% in test [1]; 66.5 ± 7.5% in test [2]; 0.8 ± 0.9% in test [3]; 7.1 ± 3.7% in test [4]; 18.6 ± 4.6% in [6]; 32.2 ± 15.5% in test [7]. Also, the “% of Wild-Type Signal (mean ± SD)” value in test [9] was 2.5 ± 3.7%; in [11], 94.3 ± 18.9%; in test [12], 111.2 ± 11.3%; in test [13] (Gβ1γ2 Trp99Ala, phage displaying SIGK peptide), 66.0 ± 7.7%; in test [14], 2.1 ± 2.4%; in [15], 109.1 ± 21.4%. Moreover, the “% Maximal Fα Binding (± SD)” value in test [5], in [8] and in test [10] was 100.0 ± 0.0% throughout. Further, the decrease in affinity in [13] (Trp99 mutation of Gβ1) is reported as 4 fold.
